In publication PMC6450673, “Targeted degradation of aberrant tau in frontotemporal dementia patient-derived neuronal cell models” (eLife, 2019):
Where “and” joins values, the source holds several entries; their conditions need not be identical. Identical values can stand only once.

Experiments:
[1] = target: T1, total tau (TAU5) in non-mutant control iPSC-derived neurons (Homo sapiens, UniProt P10636); assay: Human total tau ELISA in control neurons 1-3; assay type: cell-based; conditions: for TAU5 (total tau by ELISA, relative to vehicle-treated): replicate values
T1 construct: modeling pathogenic tau species without the need for overexpression of heterologous genes; endogenous in cells; host or cells: 8330-8-RC1, MGH2069-RC1, CTR2-L17-RC2 human iPSC-derived neurons
T1 sequence (P10636 1-441 isoform P10636-8, stated change not applied): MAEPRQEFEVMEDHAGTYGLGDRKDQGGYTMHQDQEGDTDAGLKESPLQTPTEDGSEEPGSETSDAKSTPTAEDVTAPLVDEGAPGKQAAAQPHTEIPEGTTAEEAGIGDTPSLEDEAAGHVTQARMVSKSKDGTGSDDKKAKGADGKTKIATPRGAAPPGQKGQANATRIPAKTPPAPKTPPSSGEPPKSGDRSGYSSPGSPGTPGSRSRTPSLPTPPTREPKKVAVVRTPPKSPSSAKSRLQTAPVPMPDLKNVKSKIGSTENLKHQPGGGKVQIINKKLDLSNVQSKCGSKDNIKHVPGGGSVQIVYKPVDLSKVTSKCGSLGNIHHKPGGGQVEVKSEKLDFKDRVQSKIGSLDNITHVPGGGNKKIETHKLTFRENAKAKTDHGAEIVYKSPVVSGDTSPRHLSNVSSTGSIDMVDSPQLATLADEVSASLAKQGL
Text: (§1) Cells from individuals carrying the tau risk variant A152T (c.1407G > A; NCBI RefSeq NM_001123066, rs143624519), the autosomal dominant mutation P301L (c.C1907T; NCBI NM_001123066, rs63751273), or age-matched non-mutant WT tau were employed in this study (Figure 2—source data 1). Dermal fibroblasts from the tau-P301L carrier and the healthy individual were generated from a skin biopsy from subjects within the MGH Frontotemporal Disorders Unit as part of the MGH Neurodegeneration Repository. Approval for human subjects’ work was obtained under a Partners/MGH-approved IRB Protocol (#2010P001611/MGH). Fibroblasts were reprogrammed into iPSCs, which were subsequently converted into cortical-enriched neural progenitor cells (NPCs) and differentiated into neuronal cells as previously described ([Almeida et al., 2012]; [Seo et al., 2017]; [Silva et al., 2016]; [Sheridan et al., 2011]) (Silva MC, Manuscript in preparation, 2019). Briefly, cells were cultured in 6-well (Fisher Scientific Corning, Pittsburgh, PA) or 96-well (Fisher Scientific Corning) plates coated with poly-ornithine (20 μg/mL in water, Sigma, St. Louis, MO) and laminin (5 μg/mL in PBS, Sigma) (POL-coated), in DMEM/F12-B27 media [70% DMEM (Gibco, Carlsbad, CA), 30% Ham’s-F12 (Fisher Scientific Corning), 2% B27 (Gibco), 1% penicillin-streptomycin (Gibco)]. Media was supplemented with EGF (20 ng/mL, Sigma), FGF (20 ng/mL, Stemgent, Cambridge, MA) and heparin (5 μg/mL, Sigma), to promote NPC proliferation and expansion. The growth factors were withdrawn to promote neural differentiation for 6 to 8 weeks, with half media change two times per week. Cell lines’ identity was authenticated by SANGER sequencing, karyotyping and ACGH analysis at different stages of culture maintenance from iPSC to NPC. All working cell lines tested negative for mycoplasma contamination.
(§2) Compound treatment in six-well plates was performed in 2 mL media volume by removing 1 mL of conditioned media from the culture and adding 1 mL of new media pre-mixed with the compound at the appropriate 2X concentration, followed by incubation at 37°C for the designated period of time. Compound treatment in 96-well plates was performed in 100 μL media volume by adding compound directly to each well, followed by incubation at 37°C. When testing the effect of drug pre-treatment, the first compound was added as described above for the period of time needed, and then QC-01–175 was added directly onto the media without media exchange.
Neuronal cells differentiated in six-well plate format for 6 weeks, were collected as described for western blotting, and lysed in ELISA-compatible buffer (Invitrogen FNN0011), supplemented with 1 mM PMSF, protease (Roche) and phosphatase (Sigma) inhibitors cocktails, for 30 min on ice with quick vortexing. Lysates were clarified by centrifugation at 13,000 rpm at 4°C for 10 min. The clear lysates were then transferred to new microfuge tubes and total protein concentration was quantified with the Pierce BCA Protein Assay Kit (ThermoFisher Scientific). ELISA assays were performed according to manufacturer instructions: Human Total Tau ELISA (Invitrogen Kit KHB0041/KHB0042) and P-Tau[pS396] Human ELISA Kit (Invitrogen Kit KHB7031). Data was plotted using GraphPad Prism version 8.0.

A152T neurons = assay: Neuronal stress and viability assay, rescue of Aβ(1-42) toxicity (Alamar Blue); assay type: cell-based, human
[2] = test system: P-tau S396 in P301L neurons; assay: Western blot of P-tau S396 in P301L neurons; assay type: cell-based, human
Text: as §1, §2
Neurons differentiated in six-well plates for 6 weeks were washed and collected in PBS, lysed in RIPA buffer (Boston Bio-Products, Boston, MA) supplemented with 2% SDS (Sigma), protease inhibitors cocktail (Roche Complete Mini tablets, Mannheim, Germany), and phosphatase inhibitors cocktail (Sigma), followed by water sonication (Bransonic Ultrasonic Baths, Thomas Scientific, Danbury, CT) and 20,000 g centrifugation for 20 min. Supernatants were transferred to new tubes and total protein concentration was quantified with the Pierce BCA Protein Assay Kit (ThermoFisher Scientific, Carlsbad, CA). Human recombinant tau protein ladder was purchased from Sigma. Electrophoresis were performed with the Novex NuPAGE SDS-PAGE Gel System (Invitrogen, Carlsbad, CA), by running 10 μg of total protein (pre-boiled in SDS-DTT loading buffer, NEB, Ipswich, MA) on pre-cast SDS-PAGE. Gels were transferred onto PVDF membranes (EMD Millipore) using standard procedures. Membranes were blocked in 5% BSA (Sigma) in Tris-buffered saline with Tween-20 (TBST/Biorad, Hercules, CA) for 2 hr, incubated overnight with primary antibody (see antibody section) at 4°C, followed by corresponding HRP-linked secondary antibody incubation (Cell Signaling Technology, Danvers, MA). […]

## O=C(CCc1ccc2c(c1)[nH]c1ccncc12)NCCOCCOCCNc1cccc2c1C(=O)N(C1CCC(=O)NC1=O)C2=O (stereo not shown) [QC-01–175]
[1]; Control 1, 8330-8-RC1, 24h, 1 μM
  TAU5 (total tau by ELISA, relative to vehicle-treated): 0.99 and 0.94 and 0.95 and 0.71
[1]; Control 1, 8330-8-RC1, 24h, 10 μM
  TAU5 (total tau by ELISA, relative to vehicle-treated): 0.74 and 1.00 and 0.91 and 0.86
[1]; Control 2, MGH2069-RC1, 24h, 0.001 μM
  TAU5 (total tau by ELISA, relative to vehicle-treated): 0.91 and 0.93 and 1.00 and 1.15
[1]; Control 2, MGH2069-RC1, 24h, 0.01 μM
  TAU5 (total tau by ELISA, relative to vehicle-treated): 0.82 and 0.85 and 0.89 and 0.99
[1]; Control 2, MGH2069-RC1, 24h, 0.1 μM
  TAU5 (total tau by ELISA, relative to vehicle-treated): 0.76 and 0.78 and 0.92 and 0.71
[1]; Control 2, MGH2069-RC1, 24h, 1 μM
  TAU5 (total tau by ELISA, relative to vehicle-treated): 0.87 and 0.89 and 0.98 and 0.78
[1]; Control 2, MGH2069-RC1, 24h, 10 μM
  TAU5 (total tau by ELISA, relative to vehicle-treated): 0.71 and 0.83 and 0.74 and 0.76
[1]; Control 3, CTR2-L17-RC2, 24h, 0.001 μM
  TAU5 (total tau by ELISA, relative to vehicle-treated): 1.10 and 1.07 and 0.99 and 1.31
[1]; Control 3, CTR2-L17-RC2, 24h, 0.01 μM
  TAU5 (total tau by ELISA, relative to vehicle-treated): 0.96 and 1.12 and 1.00 and 0.90
[1]; Control 3, CTR2-L17-RC2, 24h, 0.1 μM
  TAU5 (total tau by ELISA, relative to vehicle-treated): 1.08 and 0.96 and 0.93 and 1.00
[1]; Control 3, CTR2-L17-RC2, 24h, 1 μM
  TAU5 (total tau by ELISA, relative to vehicle-treated): 0.91 and 0.81 and 0.71 and 0.95
[1]; Control 3, CTR2-L17-RC2, 24h, 10 μM
  TAU5 (total tau by ELISA, relative to vehicle-treated): 0.93 and 0.83 and 1.17 and 0.95
[1]; all three control neurons, ELISA, 24 hr, concentrations up to 1 μM
  degradation of tau: No significant degradation
[1]; control line 1, 10 μM, 24 hr
  degradation of total tau: ~ 20%
[1]; control line 2, 10 μM, 24 hr
  degradation of total tau: ~ 20%
[1]; control line 3, 10 μM, 24 hr
  degradation of total tau: no effect
[1]; control neurons (8330–8-RC1, MGH2069-RC1, CTR2-L17-RC2), 24 hr
  dose dependence of effect on tau, ELISA: did not show a dose-dependent effect
A152T neurons; 5μM compound alone, replicates I-VI, 5 µM
  % Viability (Relative to Vehicle): 78.5% and 107.2% and 115.8% and 105.0% and 96.7% and 93.6%
A152T neurons; A152T neurons, 24 hr treatment, 5 μM
  neuronal viability, compound alone: no change in neuronal viability
A152T neurons; Homo sapiens, Neuron, read-out: viability after Aβ(1-42) stressor, relative to vehicle-alone control, A152T neurons 8 weeks, 5 μM pre-treatment 8 hr, then 10 μM Aβ(1-42) for 16 hr
  viability at 5 µM: 90%
[2]; QC-01-175 0.001 μM, 4 h treatment
  S396 P-Tau (relative to vehicle): 0.59 and 0.49 and 0.60 and 0.58 and 0.57 and 0.52
[2]; QC-01-175 0.001 μM, 8 h treatment
  S396 P-Tau (relative to vehicle): 0.98 and 0.81 and 1.10 and 0.96 and 0.94 and 0.86
[2]; QC-01-175 0.01 μM, 4 h treatment
  S396 P-Tau (relative to vehicle): 0.62 and 0.51 and 0.75 and 0.61 and 0.59 and 0.54
[2]; QC-01-175 0.01 μM, 8 h treatment
  S396 P-Tau (relative to vehicle): 0.69 and 0.97 and 0.99 and 0.98 and 0.66 and 0.61
[2]; QC-01-175 0.05 μM, 8 h treatment
  S396 P-Tau (relative to vehicle): 0.74 and 0.61 and 0.85 and 0.73 and 0.71 and 0.65
[2]; QC-01-175 0.1 μM, 4 h treatment
  S396 P-Tau (relative to vehicle): 0.91 and 0.75 and 0.98 and 0.89 and 0.87 and 0.80
[2]; QC-01-175 0.1 μM, 8 h treatment
  S396 P-Tau (relative to vehicle): 0.62 and 0.51 and 0.70 and 0.61 and 0.59 and 0.54
[2]; QC-01-175 0.5 μM, 4 h treatment
  S396 P-Tau (relative to vehicle): 0.85 and 0.70 and 0.91 and 0.83 and 0.81 and 0.75
[2]; QC-01-175 0.5 μM, 8 h treatment
  S396 P-Tau (relative to vehicle): 0.41 and 0.34 and 0.45 and 0.39 and 0.36
[2]; QC-01-175 1 μM, 4 h treatment
  S396 P-Tau (relative to vehicle): 0.96 and 0.79 and 0.89 and 0.94 and 0.91 and 0.84
[2]; QC-01-175 1 μM, 8 h treatment
  S396 P-Tau (relative to vehicle): 0.47 and 0.55 and 0.51 and 0.46 and 0.54 and 0.59
[2]; QC-01-175 10 μM, 4 h treatment
  S396 P-Tau (relative to vehicle): 0.73 and 0.6 and 0.84 and 0.72 and 0.70 and 0.64
[2]; QC-01-175 10 μM, 8 h treatment
  S396 P-Tau (relative to vehicle): 0.72 and 0.70 and 0.75 and 0.71 and 0.69 and 0.63
[2]; western blot, 1 μM, 24 hr
  reduction of P-tau S396: 80%
